The conditions of series [1]: monkeys, intravenous, ref [25], cited from earlier work.
For series [2] the following is noted: rats, intravenous, ref [25], cited from earlier work.
The subject of series [3] is HIV-1NL4-3 Env-pseudotyped virus. Format: cell-based.
Description: (§1) HIV-1 pseudoviruses were generated as described previously [32], [55]–[56]. Briefly, 293T cells (5×10^6 cells in 15 ml of growth medium in a T-75 culture flask) were cotransfected with 10 µg of an Env-expressing plasmid and 20 µg of a backbone plasmid pSG3deltaEnv that encodes Env-defective, luciferase-expressing HIV-1 genome using Lipofectamine 2000 reagent (Invitrogen). Pseudovirus-containing culture supernatants were harvested 48 hours after transfection and filtered by 0.45-mm pore size, and stored at −80°C in 1-ml aliquots until use. The 50% tissue culture infectious dose (TCID50) of a single thawed aliquot of each pseudovirus batch was determined in TZM-bl cells. […] Briefly, the peptides were prepared with ten series dilutions in a 3-fold stepwise manner and mixed with 100 TCID50 viruses and incubated 1 hour at room temperature. The mixture was added to TZM-bl cells (10^4/well) and incubation at 37°C for 48 hours. Luciferase activity was measured using luciferase assay regents (Promega, Medison, WI) and a Luminescence Counter (Promega) according to the manufacture's instructions.
The subject of series [4] is HIV-1NL4-3 N43K pseudovirus. Format: cell-based.
Description: (§2) The mutations were created using double-stranded DNA templates and selection of mutants with DpnI. For each mutation, the two primers contained the desired mutation and occupied the same starting and ending positions on opposite strands of the plasmid DNA. DNA synthesis was carried out by PCR in a 50-µL reaction volume using 1 µL of denatured plasmid template (1 ng/µL), 50 pmol of upper and lower primers and 5 U of high-fidelity thermostable polymerase PrimeStar (Takara, Dalian, China). PCR amplification was carried out for one cycle of denaturation at 98°C for 5 min, then 18 cycles of 98°C for 15 s and 68°C for 15 min, followed a final extension at 72°C for 10 min. The amplicons were treated with the restriction enzyme DpnI for 1 h at 37°C. DpnI-resistant molecules, which were rich in the desired mutants, were recovered by transforming Escherichia coli strain-DH5α to antibiotic resistance. The successful mutations were confirmed by sequencing.
as §1
Series [5] concerns HIV-1NL4-3 Q40H pseudovirus. The format is cell-based.
Description: as §2, §1
Series [6] concerns HIV-1NL4-3 D36G pseudovirus. Format: cell-based.
Description: as §1
Series [7] deals with HIV-1NL4-3 D36S/V38M pseudovirus. Format: cell-based.
Description: as §2, §1
Series [8] concerns HIV-1NL4-3 V38A/N42T pseudovirus. The format is cell-based.
Description: as §1
In series [9] the test system is HIV-1NL4-3 V38A pseudovirus. The format is cell-based.
Description: as §1
For series [10], the system named is HIV-1NL4-3 I37T pseudovirus. The format is cell-based.
Description: as §1
In series [11] the test system is HIV-1NL4-3 I37T/N43K pseudovirus. The format is cell-based.
Description: as §2, §1
Series [12] deals with HIV-1NL4-3 V38M pseudovirus. Format: cell-based.
Description: as §1
Where [13] appears, read: after conjugation with serum albumin.
The mark [14] stands for this setting: value from which half-life was extended by albumin conjugation.

Read-outs that look alike come from different tables or passages of the source. Side chains are listed from the residue outwards. Peptide text beside a SMILES is read from it. * marks the point of attachment. Propanoyl(3-maleimido) = O=C1C=CC(=O)N1CCC(=O)*; AEEA = NCCOCCOCC(=O)O

Regarding `CC[C@H](C)[C@H](NC(=O)[C@H](CC(C)C)NC(=O)[C@H](CCC(=O)O)NC(=O)[C@H](Cc1c[nH]cn1)NC(=O)[C@@H](NC(=O)[C@H](CC(C)C)NC(=O)[C@H](CCCCNC(=O)COCCOCCNC(=O)CCN1C(=O)C=CC1=O)NC(=O)[C@@H](NC(=O)[C@H](Cc1ccc(O)cc1)NC(=O)[C@H](CC(N)=O)NC(=O)[C@H](CC(N)=O)NC(=O)[C@@H](NC(=O)[C@H](CCC(=O)O)NC(=O)[C@H](CCCNC(=N)N)NC(=O)[C@H](CC(=O)O)NC(=O)[C@H](Cc1c[nH]c2ccccc12)NC(=O)[C@H](CCC(=O)O)NC(=O)[C@H](CCC(=O)O)NC(=O)[C@H](Cc1c[nH]c2ccccc12)NC(C)=O)[C@@H](C)CC)[C@@H](C)O)[C@@H](C)CC)C(=O)N[C@@H](CCC(=O)O)C(=O)N[C@@H](CCC(=O)O)C(=O)N[C@@H](CO)C(=O)N[C@@H](CCC(N)=O)C(=O)N[C@@H](CC(N)=O)C(=O)N[C@@H](CCC(N)=O)C(=O)N[C@@H](CCC(N)=O)C(=O)N[C@@H](CCC(=O)O)C(=O)N[C@@H](CCCCN)C(=O)N[C@@H](CC(N)=O)C(=O)N[C@@H](CCC(=O)O)C(=O)N[C@@H](CCC(N)=O)C(=O)N[C@@H](CCC(=O)O)C(=O)N[C@@H](CC(C)C)C(=O)N[C@@H](CC(C)C)C(N)=O` [ABT] (Ac-WEEWDREINNYTK([AEEA-Propanoyl(3-maleimido)])LIHELIEESQNQQEKNEQELL-NH2), the entries for the “in vivo half-life (extended, 'to')” value in [1] (setting [13]) and in series [2] (setting [13]) were 102.4 h and 25.8 h, respectively. For the same compound, the “in vivo half-life (before extension, 'from')” value is on record as 10.89 h in [1] (setting [14]) and 1.67 h in series [2] (setting [14]).

Turning to `Cc1cn([C@H]2C[C@H](N=[N+]=[N-])[C@@H](CO)O2)c(=O)[nH]c1=O` [AZT], the IC50 worked out at 0.107 ± 0.0232 µM in series [3] (HIV-1NL4-3 WT pseudovirus, Table 3, TZM-bl, 48 h, mean ± SD of three independent experiments, read-out: IC50); 0.153 ± 0.0074 µM in [4] (HIV-1NL4-3 N43K, TZM-bl, 48 h, mean ± SD of three independent experiments); 0.0332 ± 0.0072 µM in series [5] (HIV-1NL4-3 Q40H, TZM-bl, 48 h, mean ± SD of three independent experiments); 0.0594 ± 0.0059 µM in [6] (HIV-1NL4-3 D36G, TZM-bl, 48 h, mean ± SD of three independent experiments); 0.0403 ± 0.0086 µM in series [7] (HIV-1NL4-3 D36S/V38M, TZM-bl, 48 h, mean ± SD of three independent experiments); 0.0381 ± 0.0037 µM in [8] (HIV-1NL4-3 V38A/N42T, TZM-bl, 48 h, mean ± SD of three independent experiments). In addition, the half-inhibitory concentration (IC50) in [9] (HIV-1NL4-3 V38A, TZM-bl, 48 h, mean ± SD of three independent experiments) was found to be 0.0423 ± 0.009 µM; in series [10] (HIV-1NL4-3 I37T, TZM-bl, 48 h, mean ± SD of three independent experiments), 0.0935 ± 0.0135 µM; in [11] (HIV-1NL4-3 I37T/N43K, TZM-bl, 48 h, mean ± SD of three independent experiments), 0.139 ± 0.0149 µM; in series [12] (HIV-1NL4-3 V38M, TZM-bl, 48 h, mean ± SD of three independent experiments), 0.0478 ± 0.0037 µM. Also, the “Fold change (in parentheses)” value in series [3] (WT, reference D36G) is listed as 1.8; in series [4] (N43K, reference D36G), 2.6; in series [5] (Q40H, reference D36G) it was 0.6; in series [6] (D36G, reference D36G) it was 1.0; in series [7] (D36S/V38M, reference D36G), 0.7; in series [8] (V38A/N42T, reference D36G), 0.6. Further, the “Fold change (in parentheses)” value in series [9] (V38A, reference D36G) was determined as 0.7; in series [10] (I37T, reference D36G), 1.6; in series [11] (I37T/N43K, reference D36G), 2.3; in [12] (V38M, reference D36G), 0.8. The Fold change is reported as 1.0 in [3] (WT, reference wild-type); 1.4 in [4] (N43K, reference wild-type); 0.3 in series [5] (Q40H, reference wild-type); 0.6 in [6] (D36G, reference wild-type); 0.4 in series [7] (D36S/V38M, reference wild-type); 0.4 in series [8] (V38A/N42T, reference wild-type). Moreover, the Fold change in series [9] (V38A, reference wild-type) is on record as 0.4; in series [10] (I37T, reference wild-type), 0.9; in series [11] (I37T/N43K, reference wild-type), 1.3; in series [12] (V38M, reference wild-type), 0.5.

The values above are taken from PMC3293837, “Biophysical Property and Broad Anti-HIV Activity of Albuvirtide, a 3-Maleimimidopropionic Acid-Modified Peptide Fusion Inhibitor” (PLoS ONE, 2012).
